Structures are written as SMILES.

The experiment deals with T1, Corticosteroid-binding globulin (Homo sapiens, UniProt P08185).
T1 sequence (P08185 whole entry): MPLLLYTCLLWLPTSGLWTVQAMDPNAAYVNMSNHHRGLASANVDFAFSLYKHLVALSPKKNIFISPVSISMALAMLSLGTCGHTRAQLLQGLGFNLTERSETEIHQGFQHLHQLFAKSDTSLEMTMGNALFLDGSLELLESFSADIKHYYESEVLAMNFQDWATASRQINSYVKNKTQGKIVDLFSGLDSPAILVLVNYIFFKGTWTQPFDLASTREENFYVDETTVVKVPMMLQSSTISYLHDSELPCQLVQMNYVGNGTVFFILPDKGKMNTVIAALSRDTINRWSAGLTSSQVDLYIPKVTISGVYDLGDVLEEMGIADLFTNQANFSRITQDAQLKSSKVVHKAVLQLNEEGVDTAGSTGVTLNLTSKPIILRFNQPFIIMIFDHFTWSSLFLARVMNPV
The experiment can be described thus: Binding affinity to human CBG receptor (corticosteroid-binding globulins).
On to `C[C@]12CC[C@H](O)C[C@@H]1CC[C@@H]1[C@@H]2CC[C@]2(C)[C@@H](O)CC[C@@H]12` [ANDROSTANEDIOL], for which the Ki was 10000 nM.

Compound `C[C@]12C=CC(=O)C=C1CCC1[C@@H]2[C@@H](O)C[C@@]2(C)[C@H]1CC[C@]2(O)C(=O)CO` (single isomer, unassigned) [PREDNISOLONE] gave an inhibition constant Ki of 30.9 nM.

`C[C@]12CC[C@H]3[C@@H](CCC4=CC(=O)CC[C@@]43C)[C@@H]1CC[C@@H]2O` [TESTOSTERONE] had an inhibition constant Ki of 191 nM.

`C[C@]12C[C@H](O)[C@H]3[C@@H](CCC4=CC(=O)CC[C@@]43C)[C@@H]1CC[C@@H]2C(=O)CO` (stereo in doubt; form 2) [CORTICOSTERONE]: the inhibition constant (Ki) is 13.2 nM.

`CC(=O)[C@H]1CC[C@H]2[C@@H]3CCC4=CC(=O)CC[C@]4(C)[C@H]3C(=O)C[C@]12C` had a Ki of 166 nM.

`CC(=O)[C@@]1(O)CC[C@H]2[C@@H]3CCC4=CC(=O)CC[C@]4(C)[C@H]3CC[C@@]21C` [HYDROXYPROGESTERONE] showed a Ki of 18.2 nM.

In the case of `C[C@]12CC[C@H]3[C@@H](CCC4=CC(=O)CC[C@@H]43)[C@@H]1CC[C@@H]2O` [NANDROLONE], the inhibition constant Ki is 724 nM.

Compound `C[C@]12CCC(=O)C=C1CC[C@@H]1[C@@H]2[C@@H](O)C[C@]2(C=O)[C@@H](C(=O)CO)CC[C@@H]12` [ALDOSTERONE] gave an inhibitory constant (Ki) of 525 nM.

Take `C[C@]12C[C@H](O)[C@H]3[C@@H](CCC4=CC(=O)CC[C@@]43C)[C@@H]1CC[C@@H]2C(=O)CO` (stereo in doubt; form 1) [CORTICOSTERONE]: affinity was put at a Ki of 63.1 nM.

`C[C@]12CCC(=O)C=C1CC[C@@H]1[C@@H]2CC[C@@]2(C)[C@H]1CC[C@]2(O)C(=O)CO` [CORTODOXONE] gave a Ki of 13.2 nM.

On to `C[C@]12CC[C@H](O)CC1=CC[C@@H]1[C@@H]2CC[C@]2(C)C(=O)CC[C@@H]12` [PRASTERONE], for which the inhibitory constant (Ki) is 10000 nM.

Compound `C[C@]12CC[C@H]3[C@@H](CCC4=CC(=O)CC[C@@]43C)[C@@H]1CC[C@@H]2C(=O)CO` [DESOXYCORTICOSTERONE] gave a Ki of 22.4 nM.

Take `C[C@]12CCC(=O)C=C1CC[C@@H]1[C@@H]2CC[C@]2(C)C(=O)CC[C@@H]12` [ANDROSTENEDIONE]: affinity was put at a Ki of 1740 nM.

On to `CC(=O)OCC(=O)[C@@]1(O)CC[C@H]2[C@@H]3CCC4=CC(=O)CC[C@]4(C)[C@H]3[C@@H](O)C[C@@]21C` [HYDROCORTISONE ACETATE], for which the inhibition constant Ki is 28.2 nM.

The compound `CC(=O)[C@H]1CC[C@H]2[C@@H]3CC=C4C[C@@H](O)CC[C@]4(C)[C@H]3CC[C@]12C` [PREGNENOLONE] had an inhibitory constant (Ki) of 5890 nM.

In the case of `C[C@]12CCC(=O)C=C1CCC1[C@@H]2C(=O)C[C@@]2(C)[C@H]1CC[C@]2(O)C(=O)CO` (single isomer, unassigned) [CORTISONE], the Ki is 129 nM.

Compound `C[C@]12CC[C@@H]3c4ccc(O)cc4CC[C@H]3[C@@H]1CC[C@@H]2O` [ESTRADIOL] gave an inhibition constant Ki of 10000 nM.

As for `C[C@]12CC[C@@H]3c4ccc(O)cc4CC[C@H]3[C@@H]1CCC2=O` [ESTRONE], the Ki was 10000 nM.

With `CC(=O)[C@@]1(O)[C@H](O)C[C@H]2[C@@H]3CCC4=CC(=O)CC[C@]4(C)[C@H]3CC[C@@]21C`, the Ki is 562 nM.

`CC(=O)C1CCC2C3C[C@H](C)C4=CC(=O)CCC4(C)C3CCC12C` (stereo partly specified): the affinity corresponds to a Ki of 75.9 nM.

`CC1C[C@@]2(C)C(=CC1=O)CC[C@@H]1[C@@H]2C(=O)C[C@@]2(C)[C@H]1CC[C@]2(O)C(=O)CO` (stereo partly specified) gave a Ki of 20.4 nM.

On to `CC(=O)[C@@]1(O)CC[C@H]2[C@@H]3CC[C@@H]4C[C@H](O)CC[C@]4(C)[C@H]3CC[C@@]21C` [HYDROXYPREGNENOLONE], for which the affinity, expressed as Ki, was 10000 nM.

`CC(=O)[C@H]1CC[C@H]2[C@@H]3CCC4=CC(=O)CC[C@]4(C)[C@H]3CC[C@]12C` [PROGESTERONE] had a Ki of 41.7 nM.

`C[C@@H]1C[C@@]2(C)C(=CC1=O)CC[C@H]1[C@@H]3CC[C@](O)(C(=O)CO)[C@@]3(C)C[C@H](O)[C@@]12F` gave an inhibition constant (Ki) of 1580 nM.

As to `C[C@]12CC[C@@H]3c4ccc(O)cc4CC[C@H]3[C@@H]1C[C@@H](O)[C@@H]2O` [ESTRIOL], the Ki was 10000 nM.

The compound `CC(=O)[C@H]1CC[C@H]2[C@@H]3CCC4=CC(=O)CC[C@@H]4[C@H]3CC[C@]12C` had an inhibition constant (Ki) of 151 nM.

What is called Ki is the dissociation constant of the complex between target and ligand, obtained from inhibition or displacement. Higher therefore signals weaker binding.

Source of the values: ChEMBL document CHEMBL1148457, “Comparative molecular active site analysis (CoMASA). 1. An approach to rapid evaluation of 3D QSAR” (J Med Chem, 2004).
